Assay results taken from US9840501B2, “Morpholin-pyridine derivatives” (Hoffmann-La Roche Inc., priority 2014, dated 2017).

Legend:
rat TAAR1 = rat TAAR1 (Rattus norvegicus (Rat), UniProt Q923Y9); assay: Radioligand binding assay on rat TAAR1; conditions: for Ki: rat TAAR1, membranes of stably transfected HEK-293 cells, second value of the pair, read-out: Ki (μM) mouse/rat: rat
Method in brief: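 Membranes from HEK293 cells stably expressing rat TAAR1, in 20 mM HEPES-NaOH pH 7.4; displacement of 3[H]-(S)-4-[(ethyl-phenyl-amino)-methyl]-4,5-dihydro-oxazol-2-ylamine, nonspecific binding with 10 μM unlabeled ligand. Compounds 10 pM to 10 μM in duplicate, 1 h at 4 °C, filtration and scintillation counting.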

mouse TAAR1 = mouse TAAR1 (Mus musculus (Mouse), UniProt Q923Y8); assay: Radioligand binding assay on mouse TAAR1; conditions: for Ki: mouse TAAR1, membranes of stably transfected HEK-293 cells, first value of the pair, read-out: Ki (μM) mouse/rat: mouse
Method in brief: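 Membranes from HEK293 cells stably expressing mouse TAAR1, in 20 mM HEPES-NaOH pH 7.4 with 0.1 mM EDTA, incubated 1 h at 4 °C with ^3[H]-(S)-4-[(ethyl-phenyl-amino)-methyl]-4,5-dihydro-oxazol-2-ylamine and compounds (10 pM to 10 μM, duplicates). Nonspecific binding with 10 μM unlabeled ligand; bound radioactivity counted after filtration.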

rat TAAR1, sequence (Q923Y9 whole entry): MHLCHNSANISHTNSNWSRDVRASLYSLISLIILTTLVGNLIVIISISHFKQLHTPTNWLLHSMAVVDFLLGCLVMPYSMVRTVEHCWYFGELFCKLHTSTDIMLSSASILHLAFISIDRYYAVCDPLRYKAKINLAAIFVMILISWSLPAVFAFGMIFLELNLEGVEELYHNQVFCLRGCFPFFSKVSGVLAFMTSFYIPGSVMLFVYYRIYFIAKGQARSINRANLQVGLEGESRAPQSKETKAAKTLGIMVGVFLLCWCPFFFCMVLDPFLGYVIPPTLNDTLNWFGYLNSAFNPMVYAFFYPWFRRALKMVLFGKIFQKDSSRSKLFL
mouse TAAR1, sequence (Q923Y8 whole entry): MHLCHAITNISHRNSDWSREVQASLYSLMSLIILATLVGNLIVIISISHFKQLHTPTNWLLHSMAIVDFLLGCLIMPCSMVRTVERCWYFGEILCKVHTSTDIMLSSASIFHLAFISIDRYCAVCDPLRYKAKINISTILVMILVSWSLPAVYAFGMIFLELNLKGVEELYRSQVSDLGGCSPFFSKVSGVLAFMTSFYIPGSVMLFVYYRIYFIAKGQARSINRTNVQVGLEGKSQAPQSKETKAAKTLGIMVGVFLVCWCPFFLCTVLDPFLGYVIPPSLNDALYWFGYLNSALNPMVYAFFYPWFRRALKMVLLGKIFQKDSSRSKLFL

| Ki (rat TAAR1) [µM] | Ki (mouse TAAR1) [µM] | Kd (rat TAAR1; rat TAAR1 membranes, saturation curve, usual value per membrane batch, read-out: dissociation constant (Kd) of the radioligand) [nM] | Kd (mouse TAAR1; mouse TAAR1 membranes, saturation curve, usual value per membrane batch, read-out: dissociation constant (Kd) of the radioligand) [nM] | Structure (SMILES) |
| --- | --- | --- | --- | --- |
| 0.12 | 0.015 |  |  | CC(C)c1n[nH]c(C(=O)Nc2ccc([C@H]3CNCCO3)nc2)c1F [Example 116, 4-Fluoro-3-isopropyl-N-[6-[(2R)-morpholin-2-yl]-3-pyridyl]-1H-pyrazole-5-carboxamide] |
| 0.0954 | 0.0239 |  |  | CC(C)c1n[nH]c(C(=O)Nc2ccc([C@@H]3CNCCO3)nc2)c1F [Example 121, 4-Fluoro-3-isopropyl-N-[6-[(2S)-morpholin-2-yl]-3-pyridyl]-1H-pyrazole-5-carboxamide] |
|  |  | ~2.3 | ~0.7 | CCN(C[C@H]1COC(N)=N1)c1ccccc1 [^3[H]—(S)-4-[(ethyl-phenyl-amino)-methyl]-4,5-dihydro-oxazol-2-ylamine, reference compound] |

| Structure (SMILES) | Ki (rat TAAR1) [µM] | Ki (mouse TAAR1) [µM] | Kd (rat TAAR1; rat TAAR1 membranes, saturation curve, usual value per membrane batch, read-out: dissociation constant (Kd) of the radioligand) [nM] | Kd (mouse TAAR1; mouse TAAR1 membranes, saturation curve, usual value per membrane batch, read-out: dissociation constant (Kd) of the radioligand) [nM] |
| --- | --- | --- | --- | --- |
| CC(C)c1n[nH]c(C(=O)Nc2ccc([C@@H]3CNCCO3)nc2)c1Cl [Example 120, 4-Chloro-3-isopropyl-N-[6-[(2S)-morpholin-2-yl]-3-pyridyl]-1H-pyrazole-5-carboxamide] | 0.0203 | 0.0311 |  |  |
